Assay results from the CheMixHub viscosity set.
Where “and” joins values, the source holds several entries; their conditions need not be identical. Equal entries are not always repeated.

How the values were obtained:
[1] = xn = mol fraction of the nth substance listed

C=CCO
viscosity [mPa·s]
Details	298.15 K	303.15 K	313.15 K	318.15 K	323.15 K
101 kPa	–	1.122	0.9208	0.8419	0.7703
101.33 kPa	1.232	–	–	–	–

CCn1cc[n+](C)c1.[Cl][Al-]([Cl])([Cl])[Cl+][Al-]([Cl])([Cl])[Cl]
100 kPa
Details	viscosity [mPa·s]
293.15 K	16.11
303.15 K	12.41
313.15 K	9.79
323.15 K	7.943

CN1CCC[C@H]1c1cccnc1
viscosity
Details	298.15 K	303.15 K	308.15 K	318.05 K	323.15 K
100 kPa	–	3.6 mPa·s	–	2.5 mPa·s	2.195 mPa·s
101 kPa	3.894 mPa·s (2×) and 3.894 mPa·s (2×) and 3.894 mPa·s	–	3.156 mPa·s and 3.156 mPa·s	–	–
101.33 kPa	3.894 mPa·s (2×) and 3.891 mPa·s	–	3.156 mPa·s	–	2.038 mPa·s

CC(=O)[O-].CC[n+]1ccn(C)c1
viscosity
Details	293.15 K	303.15 K	308.15 K	313.15 K	318.15 K	323.15 K
100 kPa	203 mPa·s	89.44 mPa·s	–	53.45 mPa·s and 61.13 mPa·s	–	34.58 mPa·s
101 kPa	197 mPa·s	93.62 mPa·s and 95.11 mPa·s and 102.4 mPa·s	71.26 mPa·s	57.72 mPa·s and 55.52 mPa·s and 60.42 mPa·s	44.15 mPa·s	35.74 mPa·s and 36.27 mPa·s and 38.97 mPa·s

CC(=O)[O-].C[NH+]1C=CN=C1
Details	viscosity [mPa·s]
298.15 K, 100 kPa	6.22

CCCC(O)CC (centres undefined)
Details	viscosity
298.15 K, 101.33 kPa	4.34 mPa·s and 4.34 mPa·s

CCCCCCCCCCC
viscosity
Details	293.15 K	298.15 K	303.15 K	308.15 K	313.15 K	318.15 K	323.15 K
100 kPa	1.187 mPa·s and 1.155 mPa·s	1.074 mPa·s	1.009 mPa·s and 0.993 mPa·s and 0.983 mPa·s	0.935 mPa·s and 0.923 mPa·s and 0.912 mPa·s	0.869 mPa·s and 0.861 mPa·s and 0.849 mPa·s	0.812 mPa·s and 0.806 mPa·s and 0.792 mPa·s	0.761 mPa·s and 0.756 mPa·s and 0.742 mPa·s
101 kPa	–	1.075 mPa·s	–	0.9373 mPa·s	–	0.7937 mPa·s	–
101.33 kPa	–	1.084 mPa·s and 1.084 mPa·s	–	–	–	–	–

OCCCO
viscosity
Details	293.15 K	298.15 K	303.15 K	308.15 K	313.15 K	318.15 K	323.15 K
100 kPa	54.53 mPa·s (2×) and 53.1 mPa·s and 52.75 mPa·s	42.89 mPa·s (2×) and 41.2 mPa·s	34.62 mPa·s (2×) and 33.4 mPa·s and 32.51 mPa·s	27.06 mPa·s	21.85 mPa·s	19.93 mPa·s	–
101 kPa	–	42.1 mPa·s and 42.06 mPa·s	33.7 mPa·s	–	22.1 mPa·s and 20.29 mPa·s	18.8 mPa·s and 16.88 mPa·s	14.16 mPa·s
101.3 kPa	–	41.77 mPa·s	33.35 mPa·s	–	22.39 mPa·s	18.61 mPa·s	15.66 mPa·s

NC=O
viscosity
Details	293.15 K	298.15 K	303.15 K	308 K	308.15 K	313 K	313.15 K	318.15 K	323.15 K
100 kPa	3.734 mPa·s	3.34 mPa·s	2.964 mPa·s and 2.874 mPa·s	–	2.612 mPa·s	–	2.351 mPa·s	–	–
101 kPa	3.656 mPa·s and 3.792 mPa·s	–	–	2.648 mPa·s	–	2.273 mPa·s	–	–	2.01 mPa·s and 1.905 mPa·s and 1.966 mPa·s
101.3 kPa	–	3.393 mPa·s	2.8 mPa·s	–	2.5 mPa·s	–	2.2 mPa·s	–	1.6 mPa·s
101.33 kPa	–	3.217 mPa·s	2.802 mPa·s and 2.84 mPa·s	–	2.498 mPa·s and 2.59 mPa·s	–	2.243 mPa·s	2.032 mPa·s	1.846 mPa·s

CC(C)C#N
101 kPa
Details	viscosity
303.15 K	0.461 mPa·s
308.15 K	0.434 mPa·s and 0.433 mPa·s

CCOC(=O)CCC(=O)OCC
101.33 kPa
Details	viscosity [mPa·s]
298.15 K	2.466
303.15 K	2.196
308.15 K	1.973
313.15 K	1.779
318.15 K	1.615

COCC(C)OCC(C)O (centres undefined)
101.33 kPa
Details	viscosity [mPa·s]
298.15 K	3.691
308.15 K	2.765
318.15 K	2.147

NC=O + CCCCCO
[1], 298.15 K, 100 kPa
Details	viscosity [mPa·s]
x1 = 0.05608	3.38
x1 = 0.1142	3.39
x1 = 0.2182	3.48
x1 = 0.2483	3.57
x1 = 0.3487	3.73
x1 = 0.3776	3.77
x1 = 0.4665	3.98
x1 = 0.4951	4.02
x1 = 0.5681	4.15
x1 = 0.6207	4.23
x1 = 0.7099	4.32
x1 = 0.7533	4.33
x1 = 0.8001	4.23
x1 = 0.8518	4.07
x1 = 0.9349	3.69

OCCCO + OCCO
viscosity [mPa·s], [1], 101 kPa
Details	x2 = 0.111	x2 = 0.2019	x2 = 0.359	x2 = 0.4612	x2 = 0.5502	x2 = 0.6262	x2 = 0.7342	x2 = 0.8289	x2 = 0.9111
298.15 K	39.52	37.55	34.13	31.81	–	–	24.96	22.36	19.9
303.15 K	31.57	29.96	27.17	25.33	23.65	22.16	19.81	17.71	15.79
308.15 K	25.57	24.22	21.94	20.45	19.09	17.92	16.08	14.42	12.89

CCCCCCCCCCC + CCCCCCCCCC
[1], 298.15 K, 101.33 kPa
Details	viscosity [mPa·s]
x2 = 0.1074	1.056
x2 = 0.2094	1.03
x2 = 0.3054	1.009
x2 = 0.4086	0.9854
x2 = 0.5085	0.9556
x2 = 0.608	0.9393
x2 = 0.7092	0.9206
x2 = 0.8045	0.9013
x2 = 0.9056	0.868

N#C[C-](C#N)C#N.OCC[n+]1ccccc1
101 kPa
Details	viscosity [mPa·s]
293.15 K	136.6
298.15 K	97.48
303.15 K	71.78
308.15 K	54.57
313.15 K	42.31
318.15 K	33.96
323.15 K	27.78

OCCCO + C[N+](C)(C)CCO.[Cl-]
viscosity [mPa·s], [1], 101.3 kPa
Details	293.15 K	298.15 K	298.2 K	303.15 K	308.15 K	308.2 K	313.15 K	318.15 K	318.2 K	323.15 K
x1 = 0.7509	69.74	55.76	–	45.4	37.43	–	31.35	26.52	–	22.62
x1 = 0.8001	61.31	49.49	–	40.7	33.88	–	27.31	23.03	–	19.63
x1 = 0.8328	57.14	46.14	–	37.62	30.92	–	25.67	21.53	–	18.26
x1 = 0.8567	53.95	42.83	–	34.73	28.58	–	24.01	20.38	–	17.26
x2 = 0.1667	–	–	49.5	–	–	36.9	–	–	27.6	–
x2 = 0.2	–	–	–	34.45	28.87	–	24.21	20.52	–	17.57
x2 = 0.25	–	–	–	40.05	33.17	–	27.84	23.62	–	20.25

NC=O + CCC(C)O
[1], 101 kPa
Details	viscosity [mPa·s]
293.15 K, x1 = 0.5093	4.025
318.15 K, x1 = 0.9024	2.175

OCCCl
viscosity
Details	293.15 K	298.15 K	303.15 K	308.15 K	313.15 K
100 kPa	–	–	–	2.234 mPa·s	1.882 mPa·s
101.3 kPa	–	2.973 mPa·s	2.611 mPa·s	–	–
101.33 kPa	3.588 mPa·s	2.81 mPa·s and 2.985 mPa·s	2.624 mPa·s and 2.448 mPa·s	2.15 mPa·s	–

NC=O + CN(C)C=O
[1], 298.15 K, 101.3 kPa
Details	viscosity [mPa·s]
x1 = 0.1	1.041
x1 = 0.2	1.27
x1 = 0.3	1.472
x1 = 0.4	1.698
x1 = 0.5	1.939
x1 = 0.6	2.198
x1 = 0.7	2.483
x1 = 0.8	2.817
x1 = 0.9	3.191

OCCCO + CN(C)C=O
[1], 308.15 K, 101 kPa
Details	viscosity [mPa·s]
x1 = 0.0229	0.76
x1 = 0.0468	0.834
x1 = 0.0914	0.904
x1 = 0.2048	1.267
x1 = 0.3032	1.748
x1 = 0.397	2.4
x1 = 0.4994	3.516
x1 = 0.597	5.056
x1 = 0.699	7.606
x1 = 0.7983	11.93
x1 = 0.9001	17.75
x1 = 0.9477	20.44
